Columns and labels:
[1] = system: aspirin-induced gastric ulcers; experiment: Aspirin-induced stomach ulcer; format: in vivo, rat (female H-Wistar); conditions: Aspirin (control) 100 mg/kg p.o., n=20
Method: It is known that the non-steroidal antiinflammatory agents induce gastointestinal ulceration to certain extent (Drugs and Peptic Ulcer, Ed. Pfeiffer, CRC Press, New York 1982). To test anti-ulcer compounds the so-called Aspirin-induced ulcer model is widely used. Female H-Wistar rats weighing 120-150 g each were fasted for 24 hours. Water was allowed ad libitum. The stomach ulcer was induced by oral administration of 100 mg/kg Aspirin (in Tween 80 suspension). The test drug was given simultaneously with the administration of Aspirin, orally. The animals were killed by an overdose of ether, 4 hours after treatment. The stomach was excised and cut along the large curvature. The contents were slightly washed and the haemorrhagic lesions in the glandular surface were counted. When evaluating the test results, the number of ulcers per stomach or the ulcer-free animals were determined.

[2] = system: intestinal ulceration induced by indomethacin; conditions: literature; cited from earlier work
[3] = system: indomethacin-induced intestinal ulceration; experiment: Indomethacin-induced fatal intestinal ulceration (15 mg/kg p.o.), inflation technique; format: in vivo, rat (female H-Wistar)
Method: Indomethacin-induced intestinal ulceration
Of the non-steroidal antiinflammatory agents indomethacin has not only a gastric-ulcer inducing side-effect but may also cause serious intestinal ulceration. Depending on the dose, the intestinal ulceration may be fatal, peritonitis due to intestinal perforations kills the animals.
(a) Indomethacin-induced fatal intestinal ulceration
Non-fasted, female H-Winstar rats, weighing 120-150 g each were treated orally with a 15 mg/kg dose of indomethacin (in Tween 80 suspension). […] Under these conditions it requires about 48 to 72 hours to detect intenstinal ulceration.
(§1) To evaluate the development of intestinal ulcers the so-called inflation technique by Ezer and Szporny (J. Pharm. Pharmacol. 27, 866 (1975)) was employed. By this method the progress of ulceration can be monitored quantitatively. The tensile strength of the intestinal wall expressed in mmHg weakens gradually parallel with the progress of ulceration.

[4] = system: indomethacin-induced non-fatal intestinal ulceration; experiment: Indomethacin-induced (7.5 mg/kg p.o.) non-fatal intestinal ulceration, post-treatment, inflation technique; format: in vivo, rat (H-Wistar)
Method: as §1
(b) Indomethacin-induced non-fatal ulceration
Non-fasted H-Wistar rats weighing 120 to 150 g each were administered 7.5 mg/kg indomethacin orally, to induce non-fatal intestinal ulceration. 4, 24 and 48 hours, respectively, after the indomethacin treatment the animals were treated with the test material orally. The animals were killed 24 hours after the last treatment and 72 hours after the ulcer-induction performed with indomethacin, respectively. Ulceration was evaluated by the inflation technique.

formation of ulcers = conditions: cited from earlier work
[5] = indomethacin 15 mg/kg p.o. alone, n=16
[6] = indomethacin 15 + 25 mg/kg p.o.
[7] = indomethacin 15 + 50 mg/kg p.o.

## CC(=O)Oc1ccccc1C(=O)O [Aspirin, reference compound]
[1]
  Number of ulcers/stomach: 15.7 ± 3.0
  Ulcer-free animals: 0%

## C[N+]1(C)[C@@H]2CC[C@H]1CC(OC(=O)C1c3ccccc3Oc3ccccc31)C2.[Br-] (stereo partly drawn) [Gastrixon]
[2]
  Indomethacin-induced intestinal ulceration, in words: cannot prevent indomethacin-induced intestinal ulceration

## COc1ccc2c(c1)c(CC(=O)O)c(C)n2C(=O)c1ccc(Cl)cc1 [Indomethacin, reference compound]
[3]; [5]
  Intestinal wall resistency in % of normal: 20 % of normal
  T.s. of intestinal wall 72 hours after treatment: 46 ± 12 mm Hg
[4]; indomethacin 7.5 mg/kg p.o. alone, n=32, group B
  T.s. of intestinal wall 72 hours after indomethacin treatment: 185 ± 11 mm Hg

## O=C(O)c1ccccc1O [Na--salicylate, reference compound]
[3]; Rattus norvegicus, po
  ED100: 50 mg/kg
[3]; [6]
  Intestinal wall resistency in % of normal: 57 % of normal
  T.s. of intestinal wall 72 hours after treatment: 132 ± 17 mm Hg
[3]; [7]
  Intestinal wall resistency in % of normal: 100 % of normal
  T.s. of intestinal wall 72 hours after treatment: 231 ± 5 mm Hg

## CC(C)[N+](C)(CCOC(=O)C1c2ccccc2Oc2ccccc21)C(C)C [Propanthelin]
[2]
  Indomethacin-induced intestinal ulceration, in words: cannot prevent indomethacin-induced intestinal ulceration

## CN1CCN(CC(=O)N2c3ccccc3C(=O)Nc3cccnc32)CC1 [pirenzepine, 5,11-dihydro-11-[(4-methyl-1-piperazinyl)-acetyl]-6H-pyrido[2,3-b][1,4] benzodiazepine-6-one]
Formation of ulcers; compared to atropine
  Inhibition of the formation of ulcers, in words: inhibits the formation of ulcers to the same extent as atropine
Formation of ulcers; in vivo
  Other anticholinergic effects (e.g. inhibition of peristalsis, accommodation disturbances of eye, inhibition of salivation): devoid of other anticholenergic effects

## CNC(=C[N+](=O)[O-])NCCSCc1ccc(CN(C)C)o1 [ranitidine]
[4]; post-treatment 4, 24 and 48 hours after indomethacin 7.5 mg/kg p.o.
  Non-fatal intestinal ulceration post-treatment, in words: ineffective
